This note sets out measurements from patent US6545045B1, “Prostaglandin E agonists for treatment of glaucoma” (Alcon Manufacturing, Ltd., priority 1998, dated 2003).

In assay [1] the target is T1, EP2 receptors (Homo sapiens, UniProt P43116).
T1 construct: Immortalized human non-pigmented ciliary epithelial cells (containing EP2 receptors); endogenous in cells; host or cells: immortalized human non-pigmented ciliary epithelial cells
Briefly: cAMP production (radioimmunoassay) via EP2 receptors in immortalized human non-pigmented ciliary epithelial cells. Format: cell-based. As to the method: (§1) Immortalized human non-pigmented ciliary epithelial cells (containing EP2 receptors) and Chinese hamster ovary cells (containing EP4 receptors, Milne et al. Human moncytes and cultured Chinese hamster ovary cells express EP4 receptors positively coupled to adenylate cyclase, Br. J. Pharmacology, 113 (supplement):8 (1994)) were stimulated with various prostaglandins for 15-60 min at 23° C. The cAMP produced by receptor activation was determined by a specific radioimmunoassay as previously described (Sharif et al., Pharmacological analysis of mast cell mediator and neurotransmitter receptors coupled to adenylate cyclase and phospholipase C on immunocytochemically-defined human conjunctival epithelial cells, J. Ocular Pharmacology & Therapeutics, 13, 321-336 (1997); Crider et al. Prostaglandin-stimulated adenylyl cyclase activity via a pharmacologically-defined EP2 receptor in human non-pigmented epithelial cells, J. Ocular Pharmacology & Therapeutics 14:293-304 (1998); Crider et al. Use of a semi-automated, robotic radioimmunoassay to measure cAMP generated by activation of DP-, EP2- and IP-prostaglandin receptors in human ocular and other cell-types, Prostaglandins, Leukotrienes & Fatty Acids 59:77-82 (1998), Milne et al. Human moncytes and cultured Chinese hamster ovary cells express EP4 receptors positively coupled to adenylate cyclase, Br. J. Pharmacology, 113 (supplement):8, (1994)).
On the technique in general: Cyclic AMP is a second messenger, typically raised through Gs and lowered through Gi signalling.

Assay [2] has as its target T2, EP4 receptors (Cricetulus griseus, UniProt A0A061ILF4).
T2 construct: Chinese hamster ovary cells (containing EP4 receptors); endogenous in cells; host or cells: Chinese hamster ovary (CHO) cells
Briefly: cAMP production (radioimmunoassay) via EP4 receptors in Chinese hamster ovary cells. Type of assay: cell-based. To be noted: stimulated 15-60 min at 23° C; for EC50: read-out: Potency (EC50, nM) at EP4 Receptors in Chinese Hamster Ovary Cells. The method, then:
as §1

Where [3] appears, read: cAMP production, stimulated 15-60 min at 23° C.

T2 sequence (A0A061ILF4 1-488): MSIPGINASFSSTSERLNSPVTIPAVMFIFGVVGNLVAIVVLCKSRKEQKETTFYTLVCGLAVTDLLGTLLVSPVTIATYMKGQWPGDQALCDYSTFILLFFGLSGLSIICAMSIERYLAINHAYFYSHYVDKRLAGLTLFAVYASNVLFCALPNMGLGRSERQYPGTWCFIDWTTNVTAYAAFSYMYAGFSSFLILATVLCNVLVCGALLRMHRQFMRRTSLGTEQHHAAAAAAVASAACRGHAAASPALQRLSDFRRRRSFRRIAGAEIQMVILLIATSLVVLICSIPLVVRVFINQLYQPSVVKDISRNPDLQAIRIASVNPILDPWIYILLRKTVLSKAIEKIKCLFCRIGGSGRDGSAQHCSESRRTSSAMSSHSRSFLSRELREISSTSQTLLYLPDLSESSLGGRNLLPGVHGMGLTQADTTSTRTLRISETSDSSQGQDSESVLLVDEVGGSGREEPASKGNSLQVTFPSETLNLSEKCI
T1 sequence (P43116 whole entry): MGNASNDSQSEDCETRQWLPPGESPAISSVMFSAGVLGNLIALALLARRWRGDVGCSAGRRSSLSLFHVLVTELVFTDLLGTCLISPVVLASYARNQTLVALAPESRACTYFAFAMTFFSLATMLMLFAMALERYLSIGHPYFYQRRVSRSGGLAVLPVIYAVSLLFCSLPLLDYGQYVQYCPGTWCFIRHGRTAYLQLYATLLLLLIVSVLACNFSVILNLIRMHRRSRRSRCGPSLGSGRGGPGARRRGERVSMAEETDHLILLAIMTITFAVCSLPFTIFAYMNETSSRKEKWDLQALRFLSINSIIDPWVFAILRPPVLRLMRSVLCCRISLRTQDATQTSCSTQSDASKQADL

For `O=C(O)CCC/C=C\C[C@@H]1[C@@H](/C=C/[C@@H](O)COc2cccc(C(F)(F)F)c2)[C@H](O)C[C@@H]1O` (racemic) [Fluprostenol], the “Potency (EC50, nM) at EP2 Receptors in Immortalized Human Non-pigmented Ciliary Epithelial Cells” value in assay [1] (setting [3]) is “Inactive”; in assay [1] (cAMP production, stimulated 15-60 min at 23° C, listed as fluprostenol), “inactive”. Moreover, the “Potency (EC50, nM) at EP4 Receptors in Chinese Hamster Ovary Cells” value in assay [2] is “Inactive”; in assay [2] (listed as fluprostenol) it was “inactive”.
As for `CCCCC(C)(C)[C@H](O)/C=C/[C@H]1CCC(=O)[C@@H]1C/C=C\CCCC(=O)O` [11-deoxy-16,16-dimethyl-PGE2, 11-deoxy-16,16-dimethyl PGE2], in assay [2], the “efficacy at EP4 Receptors in Chinese Hamster Ovary Cells” value (shortened to “efficacy at EP4 Receptors”) is 99%.
Consider `CCCCC[C@H](O)/C=C/[C@H]1CCC(=O)[C@@H]1CCCCCCC(=O)O` [11-deoxy-PGE1], for which the EC50 was found to be 500 nM in assay [1] (cAMP production, stimulated 15-60 min at 23° C, read-out: Potency (EC50, nM) at EP2 Receptors in Immortalized Human Non-pigmented Ciliary Epithelial Cells) and 38 nM in assay [2]. Also, in assay [2], the “efficacy at EP4 Receptors” value is recorded as 86%.
As to `CCCCC(C)(C)[C@H](O)/C=C/[C@H]1[C@H](O)CC(=O)[C@@H]1C/C=C\CCCC(=O)O` [16,16-dimethyl-PGE2, 16,16-dimethyl PGE2], the “efficacy at EP4 Receptors” value in assay [2] amounted to 100%.
For `CCCC1([C@H](O)C/C=C/[C@H]2[C@H](O)CC(=O)[C@@H]2CCCCCCC(=O)OC)CCC1` [Butaprost], the “selectivity between EP2 and EP4 receptors (relative agonist potency)” value in assay [1] (EP2 versus EP4, from EC50 values of Table 1) is “more EP2-selective”.
For the compound `O=C(O)CCC/C=C\CC1C(O)CC(O)C1/C=C/C(O)COc1cccc(Cl)c1` (stereo not shown) [Cloprostenol], the “Potency (EC50, nM) at EP2 Receptors in Immortalized Human Non-pigmented Ciliary Epithelial Cells” value in assay [1] (setting [3]) is “Inactive”; in assay [1] (cAMP production, stimulated 15-60 min at 23° C, listed as cloprostenol), “inactive”. The entries for the “Potency (EC50, nM) at EP4 Receptors in Chinese Hamster Ovary Cells” value in assay [2] and in assay [2] (listed as cloprostenol) were “Inactive” and “inactive”, respectively.
In the case of `CCCCC[C@H](O)/C=C/[C@H]1[C@H](O)CC(=O)[C@@H]1C/C=C\CCCC(=O)O` [PGE2], in assay [2], the “efficacy at EP4 Receptors” value is 100% and the EC50 worked out at 35 nM.

In general, EC50 refers to the concentration giving half of the maximal effect.
